Measured values from patent US6777389B1, “Cosmetic or dermatological use of 7-hydroxylated steroids in combination with elastin derived peptides” (Connective Tissue Imagineering LLC, priority 1998, dated 2004).

Experiments:
[1] = tested on: elastin content of skin; assay: Elastin content of neonatal rat skin by HPLC of thermolysin-produced peptides (Example 3); assay type: in vivo, neonatal male Sprague-Dawley rats; conditions: 0.5% in carrier, twice daily, 30 days, five animals per group
Protocol: (§1) Chemical alterations in the skins of neonatal male Sprague-Dawley rats.
(§2) Collagen and elastin contents were measured on dry, defatted, hair-free skin samples. Collagen contents were assessed through hydroxyproline evaluations in hydrolyzed, 0.1N hot sodium hydroxide extracts. Elastin contents were measured by HPLC evaluation of the contents of thermolysin-produced peptides in digests of the hot sodium hydroxide residue. Controls were both shaven and unshaven, the shaven receiving only the carrier twice daily.
(§3) Elastin contents were increased by all the compounds (28% for DHEA, 30% for the 7 hydroxy and the 7 hydroxy-isoandrosterone). In these studies statistical analysis of variance was significant at an alpha level of 0.01. Similar to the histologic observations, these chemistries are reversible. Collagen and elastin contents returned to near normal levels after cessation of treatment for 30 days.

[2] = tested on: collagen content of skin; assay: Collagen content of neonatal rat skin by hydroxyproline evaluation (Example 3); assay type: in vivo, neonatal male Sprague-Dawley rats; conditions: 0.5% in carrier, twice daily, 30 days, five animals per group
Protocol: as §1, §2, §3

[3] = In-vitro oxygen radical assay with luminol and hydrogen peroxide (Example 2); assay type: biochemical; conditions: luminol pre-incubated with compound at 100 μg/ml
Protocol: The ability of a compound to scavenge free radicals implicates it as an antioxidizing agent that could help to reduce the natural oxidizing effects of aging. In a first test of whether DHEA or it derivatives have the ability to capture free radicals, an in-vitro oxygen radical assay was devised, The assay was run in quadruplicate to perfect the concentrations of controls as well as test the diluents (phosphate buffered saline (PBS) and DMSO) in which the DHEA and its derivatives were dissolved. The positive controls used were homocysteine and ascorbic acid (Vitamin C).

[4] = tested on: thymocytes; assay: Glucocorticoid-induced apoptosis of thymocytes, flow cytometry with propidium iodide (Example 4); assay type: cell-based, mouse C57BL/6; conditions: 6 hours
Protocol: Effects of 3β,7α-dihydroxy-5-androstene-17-one (7α-hydroxy-DHEA) and of 3β,7α-dihydroxy-5α-androstane-17-one (7α-hydroxy-ISOA) on the cellular apoptosis induced by glucocorticoids.
The thymus of a mouse C57BL/6 age four weeks was removed. Culture of the thymocytes was carried out for 6 hours in a RPMI 1640 medium and in the presence or in the absence of the steroid tested. The apoptosis (fragmentation of the DNA) was measured by flow cytometry after marking with propidium iodide. The apoptotic phenomenon was controlled by electrophoresis of the DNA developed by ethidium bromide according to the traditional technique (observation of ladders of 200 pairs of bases).

[5] = tested on: human keratinocytes; assay: Anti-radical effect on UVA-irradiated human keratinocyte suspension, lipid peroxide chemiluminescence (Example 7); assay type: cell-based; conditions: UVA irradiated 30 minutes, 10^−6 M
Text: The anti-radical effects of 3β,7α-dihydroxy-5-androstene-17-one (7α-hydroxy-DHEA) on a suspension of human keratinocytes.
Keratinocytes from a healthy donor were cultivated to the subconfluent stage in a specific medium (KGM) for the proliferation of keratinocytes. The suspensions obtained were split up, in triplicate, into four series, of which three were irradiated for thirty minutes with a lamp […] UVA so as to speed up the production of free radicals. Among the three irradiated series, one contained Vitamins C and E (0.7%) and was used as a protection reference, one contained 7α-hydroxy-DHEA at 10^−6 M and the last served as a control. Table D below reports on the measurement of the anti-radical effects.
The free radicals produced generate lipoid peroxides which are measured by chemiluminescence (Belghmi et al. J Biolum. Chemilum. 2: 113-119, 1982). The effectiveness of the 7α-hydroxy-DHEA was calculated on the basis of non-irradiated controls and the protection reference.

[6] = tested on: human keratinocytes; assay: Viability of human keratinocytes in culture, MTT test (Example 5); assay type: cell-based
Protocol: Effects of 3β,7α-dihydroxy-5-androstene-17-one (7α-hydroxy-DHEA) on the viability of human keratinocytes in culture.
Human keratinocytes were obtained from surgical items and were cultivated in a monolayer until preconfluence. The 7α-hydroxy-DHEA was administered to these cultures at various concentrations in ethanolic solution (10%), each concentration being tested eight times. Controls were carried out with ethanol alone (10%). After twenty-four hours, the viability of the keratinocytes was measured by testing with MTT (3-(4,5-dimethylthiazol-2-yl)-2,5 diphenyl tetrazolium bromide) where the mitochondrial dehydrogenase succinate converts the MTT into blue crystals of formazan soluble in DMSO (Mosmann, J. Immunol. Methods 65: 55-63, 1983). The cellular viability is calculated according to the formula:
Any value greater than 100 indicates a product that encourages cellular viability.

[7] = tested on: human fibroblasts; assay: Proliferation of human fibroblasts in culture, cell count (Example 6); assay type: cell-based; conditions: 72 hours of contact, control 190,667 ± 6,766
Protocol: Effects of 3β,7α-dihydroxy-5-androstene-17-one (7α-hydroxy-DHEA) on the proliferation of human fibroblasts in culture.
The cultures of human fibroblasts (person) were seeded on twenty-four site plates at the rate of 50,000 cells per site in a standard culture medium (DMEM, gentamycine, amphotericine B, penicillin, L-glutamine, 10% SVF). The tests were carried out on four series of three sites. After twenty-four hours, the fibroblasts adhered to the support and three series were treated with 7α-hydroxy-DHEA at concentrations of 10^−6 M, 6. 10^−6 M and 10^−7 M. The fourth series only contained the vector (ethanol). The media were renewed daily, and at ninety-six hours (seventy-two hours of test contact with the 7α-hydroxy-DHEA), the fibroblasts were counted on a Malassez cell in the presence of blue trypan.

[8] = tested on: rat skin dermal layer; assay: Histologic examination of H&E stained rat skin cross sections (Example 1); assay type: in vivo
Text: 7 hydroxy DHEA and 7 hydroxy isoandrosterone treated rat skin.
Upon histologic examination of hematoxylin and eosin (H&E) stained rat skin cross sections, a striking physical change was noted. […] This finding was consistent and most pronounced when the parent compound (DHEA) was used on young, healthy rats. However, it also occurred in replicate experiments when the derivatives were used. […] The latter two findings support the toxicologic studies, done concomitantly, which found no significant toxicity when the compounds were used at 0.5% concentration in a suitable carrier applied twice daily (12 hour intervals) for 30 days. […] A subset of experimental animals within each treatment group were left untreated for 30 days. Upon examination, treated skin sections were indistinguishable from the untreated.

[9] = tested on: elastin content of the skin; assay: Elastin content of rat skin after 30 days of topical treatment (FIG. 1); assay type: in vivo, Sprague-Dawley male rat; conditions: topical 5% concentration of DHEA, similar time period, three animals
Text: In FIG. 1, S CONTR represents the Shaven Control and US CONTR represents the Unshaven Control. FIG. 1 illustrates that the present invention has the advantageous qualities of enhancing the softness or elasticity of the skin by increasing the endogenous production of elastin in the skin. The present invention is also directed to a method of improving the texture of skin, specifically the physical appearance of the skin by improving the endogenous production of elastin. The method of the present invention employs any of a number of known administrative routes such as oral, IV, subcutaneous, transcutaneous, and topical administration. […]
It is preferable that the topical administration of the composition of the present invention occur repeatedly over a predetermined time period, preferably in the range of about one week to about one month. […] Testing illustrated that the endogenous elastin (measured by microgram (μg) Elastin per milligram (mg) Skin Fat Free Dry weight) of each of the rats to which the administration was applied doubled over that of a control sample and to a sample which was treated with a 5% concentration of DHEA over a similar time period. […] The data of FIG. 1 are significant at an alpha level less than 0.001 as determined by analysis of variance. […]

[10] = steroid 10^−5 M with Dexamethasone 10^−5 M
[11] = steroid 10^−6 M with Dexamethasone 10^−6 M

C[C@]12CC[C@H](O)C[C@@H]1C[C@@H](O)[C@@H]1[C@@H]2CC[C@]2(C)C(=O)CC[C@@H]12 [7α-hydroxy-ISOA, 3β,7α-dihydroxy-5α-androstane-17-one]
elastin content increase [1]: 30%
collagen increase [2]: 24%
reduction of light emission from luminol [3]: 15%
Apoptotic cells [4, 10]: 46.3%
Apoptotic cells [4, 11]: 72.0%

C[C@]12CC[C@H](O)CC1=C[C@@H](O)[C@@H]1[C@@H]2CC[C@]2(C)C(=O)CC[C@@H]12 [7α-hydroxy-DHEA, 3β,7α-dihydroxy-5-androstene-17-one]
elastin content increase [1]: 30%
Effectiveness ([5]; calculated from non-irradiated controls and protection reference): 90%
Chemiluminescence ([5]; irradiated controls 427,750 ± 137,322): 44,164 ± 13,303
collagen increase [2]: 24%
Viability of the keratinocytes ([6]; 5 · 10^−5 M, 24 hours, control = 100): 111 ± 7%
Viability of the keratinocytes ([6]; 5 · 10^−6 M, 24 hours, control = 100): 147 ± 9%
Viability of the keratinocytes ([6]; 5 · 10^−7 M, 24 hours, control = 100): 139 ± 3%
cytotoxicity ([6]; 10^−4 M to 10^−8 M): no cytotoxicity was observed
Viability of the keratinocytes ([6]; 10^−4 M, 24 hours, control = 100): 124 ± 10%
Viability of the keratinocytes ([6]; 10^−5 M, 24 hours, control = 100): 119 ± 7%
Viability of the keratinocytes ([6]; 10^−6 M, 24 hours, control = 100): 154 ± 6%
Viability of the keratinocytes ([6]; 10^−7 M, 24 hours, control = 100): 147 ± 5%
Viability of the keratinocytes ([6]; 10^−8 M, 24 hours, control = 100): 127 ± 3%
effect on viability of human keratinocytes ([6]; concentrations between 10^−4 M and 10^−8 M): significantly increases the viability
Number of Fibroblasts ([7]; 5 · 10^−6 M): 258,667 ± 3,351
Number of Fibroblasts ([7]; 10^−6 M): 268,000 ± 27,154
Number of Fibroblasts ([7]; 10^−7 M): 230,667 ± 8,511
reduction of light emission from luminol [3]: did not cause any reduction
Apoptotic cells [4, 10]: 48.6%
Apoptotic cells [4, 11]: 58.8%

C[C@]12CC[C@H](O)CC1=CC[C@@H]1[C@@H]2CC[C@]2(C)C(=O)CC[C@@H]12 [DHEA, 3β-hydroxy-5-androstene-17-one, reference compound]
elastin content increase [1]: 28%
thickness of the dermal layer of skin ([8]; 0.5% in carrier, twice daily, 30 days, vs shaven and unshaven untreated controls): thickened to nearly twice that of the untreated controls
reversibility of dermal thickening ([8]; animals left untreated for 30 days after treatment): completely reversible
endogenous elastin (mean) [9]: 1.753 microgram (μg) Elastin per milligram (mg) Skin Fat Free Dry weight
collagen decrease [2]: 16%
Viability of the keratinocytes ([6]; other comparative tests, concentration not given): 100±5
reduction of light emission from luminol [3]: 20%
Apoptotic cells [4, 10]: 51.4%
Apoptotic cells [4, 11]: 39.0%
